The values below come from patent US20160046604A1, “HETEROARYL SUBSTITUTED INDAZOLES” (BAYER PHARMA AKTIENGESELLSCHAFT, priority 2013, published 2016).

Like-named read-outs stand apart in the source and are kept apart here. Some results are limits rather than exact numbers.

Experiment [1] has as its target T1, catalytic domain of human Bub1 (amino acids 704-1085) (Homo sapiens, UniProt O43683).
T1 construct: catalytic domain of human Bub1 (amino acids 704-1085); His6 (N); made in house; host or cells: Hi5 insect cells
Description: Bub1 kinase assay (TR-FRET). It counts as biochemical. As to the method: To this end, 100-fold concentrated compound solutions (in DMSO) were previously prepared by serial dilution (1:3.4) of 2 mM stocks in a clear low volume 384-well source microtiter plate (Greiner Bio-One, Frickenhausen, Germany), from which 50 nL of compounds were transferred into a black low volume test microtiter plate from the same supplier. […] The resulting mixture (5 μL final volume) was incubated at 22° C. during 60 min., and the reaction was stopped by the addition of 5 μL of an aqueous EDTA-solution (50 mM EDTA, in 100 mM HEPES pH 7.5 and 0.2% (w/v) bovine serum albumin) which also contained the TR-FRET detection reagents (0.2 μM streptavidin-XL665 [Cisbio Bioassays, Codolet, France] and 1 nM anti-phoshoSerine antibody [Merck Millipore, cat. #35-001] and 0.4 nM LANCE EU-W1024 labeled anti-mouse IgG antibody [Perkin-Elmer, product no. AD0077, alternatively a Terbium-cryptate-labeled anti-mouse IgG antibody from Cisbio Bioassays can be used]). The stopped reaction mixture was further incubated 1 h at 22° C. in order to allow the formation of complexes between peptides and detection reagents. Subsequently, the amount of product was evaluated by measurement of the resonance energy transfer from the Eu-chelate-antibody complex recognizing the Phosphoserine residue to the streptavidin-XL665 bound to the biotin moiety of the peptide. […] IC50 values were calculated by fitting the normalized inhibition data to a 4-parameter logistic equation (Minimum, Maximum, IC50, Hill; Y=Max+(Min−Max)/(1+(X/IC50)Hill)).
For orientation: In TR-FRET formats the signal depends on donor and acceptor labels being close together.

For experiment [2], the system named is HeLa human cervical tumor cells. The experiment in a line: Proliferation assay (HeLa cell line).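 Note: crystal violet staining, absorbance at 595 nm, 0.001–10 µM test range, 4-day exposure, 0% is cell number at dosing and 100% untreated growth, IC50 from 4-parameter fit.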 Conditions: 96 h, read-out: Biological Assay 2: Proliferation assay (HeLa cell line) median IC50.
Description: Cultivated HeLa human cervical tumor cells (cells were ordered from ATCC CCL-2) were plated at a density of 3000 cells/well in a 96-well multititer plates in 200 microL DMEM/HAMS F12 culture medium (Biochrom F4815) supplemented with 10% fetal calf serum. After 24 hours, the cells of one plate (zero-point plate) were stained with crystal violet (see below), while the medium of the other plates was replaced by fresh culture medium (200 microL) containing the test substances in various concentrations (0 microM, as well as in the range of 0.001-10 microM; the final concentration of the solvent dimethyl sulfoxide was 0.5%). The cells were incubated for 4 days in the presence of test substances. Cell proliferation was determined by staining the cells with crystal violet: the cells were fixed by adding 20 microL/measuring point of an 11% glutaric aldehyde solution for 15 minutes at room temperature. After three washing cycles of the fixed cells with water, the plates were dried at room temperature. The cells were stained by adding 100 microL/measuring point of a 0.1% crystal violet solution (pH 3.0). After three washing cycles of the stained cells with water, the plates were dried at room temperature. The dye was dissolved by adding 100 microL/measuring point of a 10% acetic acid solution. Absorption was determined by photometry at a wavelength of 595 nm. The change of cell number, in percent, was calculated by normalization of the measured values to the absorption values of the zero-point plate (=0%) and the absorption of the untreated (0 microM) cells (=100%). The IC50 values were determined by means of a 4 parameter fit.
Where [3] appears, read: TR-FRET, recombinant catalytic domain of human Bub1, ATP 10 μM, peptide substrate 1 μM, 60 min at 22° C., read-out: Biological Assay 1: Bub1 kinase assay median IC50.

T1 sequence (O43683 704-1085): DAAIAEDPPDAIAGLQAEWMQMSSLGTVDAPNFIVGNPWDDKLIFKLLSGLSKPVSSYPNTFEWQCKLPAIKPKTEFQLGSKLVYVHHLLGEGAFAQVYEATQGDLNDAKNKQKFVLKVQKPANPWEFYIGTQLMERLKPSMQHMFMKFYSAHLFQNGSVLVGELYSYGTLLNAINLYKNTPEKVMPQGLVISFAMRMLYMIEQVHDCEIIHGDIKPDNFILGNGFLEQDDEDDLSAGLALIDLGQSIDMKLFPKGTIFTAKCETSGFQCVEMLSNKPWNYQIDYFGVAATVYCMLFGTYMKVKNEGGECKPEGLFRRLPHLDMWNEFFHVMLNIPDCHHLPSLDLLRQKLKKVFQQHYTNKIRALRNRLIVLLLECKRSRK

As for `COc1cnc(-c2nn(Cc3c(Cl)ccnc3Cl)c3ccccc23)nc1Nc1ccncc1` [Example 2-1-1, 2-{1-[(2,4-dichloropyridin-3-yl)methyl]-1H-indazol-3-yl}-5-methoxy-N-(pyridin-4-yl)pyrimidin-4-amine], the IC50 in experiment [1] worked out at 8.4 nM; in experiment [2], 2600 nM.
Take `COc1cnc(-c2nn(Cc3ncc(F)cc3F)c3ccccc23)nc1Nc1ccncc1` [Example 2-1-2, 2-{1-[(3,5-difluoropyridin-2-yl)methyl]-1H-indazol-3-yl}-5-methoxy-N-(pyridin-4-yl)pyrimidin-4-amine]: the IC50 in experiment [1] was 9 nM; in experiment [2], greater than 10000 nM.
Regarding `COc1cnc(-c2nn(Cc3c(C)noc3C)c3ccccc23)nc1Nc1ccncc1` [Example 2-1-3, 2-{1-[(3,5-dimethyl-1,2-oxazol-4-yl)methyl]-1H-indazol-3-yl}-5-methoxy-N-(pyridin-4-yl)pyrimidin-4-amine], the IC50 in experiment [1] (setting [3]) was 30 nM; in experiment [2], greater than 10000 nM.
`COc1cnc(-c2nn(Cc3cnn(C)c3C)c3ccccc23)nc1Nc1ccncc1` [Example 2-1-4, 2-{1-[(1,5-dimethyl-1H-pyrazol-4-yl)methyl]-1H-indazol-3-yl}-5-methoxy-N-(pyridin-4-yl)pyrimidin-4-amine]: the results for the IC50 in experiment [1] (setting [3]) and in experiment [2] were 42 nM and greater than 10000 nM, respectively.
On to `COc1cnc(-c2nn(Cc3ccc(C(F)(F)F)nc3C)c3ccccc23)nc1Nc1ccncc1` [Example 2-1-5, 5-methoxy-2-(1-{[2-methyl-6-(trifluoromethyl)pyridin-3-yl]methyl}-1H-indazol-3-yl)-N-(pyridin-4-yl)pyrimidin-4-amine], for which the IC50 is 58 nM in experiment [1] and 7100 nM in experiment [2].
In the case of `COc1cnc(-c2nn(Cc3c(C)nnn3C(F)F)c3ccccc23)nc1Nc1ccncc1` [Example 2-1-6, 2-(1-{[1-(difluoromethyl)-4-methyl-1H-1,2,3-triazol-5-yl]methyl}-1H-indazol-3-yl)-5-methoxy-N-(pyridin-4-yl)pyrimidin-4-amine], the IC50 in experiment [1] (setting [3]) came out at 150 nM.
The compound `COc1cnc(-c2nn(Cc3c(C(F)F)nn(C)c3OCC(F)(F)F)c3ccccc23)nc1Nc1ccncc1` [Example 2-1-7, 2-(1-{[3-(difluoromethyl)-1-methyl-5-(2,2,2-trifluoroethoxy)-1H-pyrazol-4-yl]methyl}-1H-indazol-3-yl)-5-methoxy-N-(pyridin-4-yl)pyrimidin-4-amine] yielded an IC50 in experiment [1] of 450 nM.
Consider `COc1cnc(-c2nn(Cc3c(C(F)(F)F)nnn3C)c3ccccc23)nc1Nc1ccncc1` [Example 2-1-8, 5-methoxy-2-(1-{[1-methyl-4-(trifluoromethyl)-1H-1,2,3-triazol-5-yl]methyl}-1H-indazol-3-yl)-N-(pyridin-4-yl)pyrimidin-4-amine], for which the values for the IC50 in experiment [1] (setting [3]) and in experiment [2] were 610 nM and greater than 10000 nM, respectively.
In the case of `COc1cnc(-c2nn(Cc3c(C)nnn3C(F)F)c3ccccc23)nc1N(Cc1c(C)nnn1C(F)F)c1ccncc1` [Example 2-1-9, N-{[1-(difluoromethyl)-4-methyl-1H-1,2,3-triazol-5-yl]methyl}-2-(1-{[1-(difluoromethyl)-4-methyl-1H-1,2,3-triazol-5-yl]methyl}-1H-indazol-3-yl)-5-methoxy-N-(pyridin-4-yl)pyrimidin-4-amine], the IC50 in experiment [1] (setting [3]) is 790 nM.
`COc1cnc(-c2nn(Cc3c(C(F)(F)F)nn(C)c3C(F)F)c3ccccc23)nc1Nc1ccncc1` [Example 2-1-10, 2-(1-{[5-(difluoromethyl)-1-methyl-3-(trifluoromethyl)-1H-pyrazol-4-yl]methyl}-1H-indazol-3-yl)-5-methoxy-N-(pyridin-4-yl)pyrimidin-4-amine] yielded an IC50 in experiment [1] of 3200 nM.
For the compound `COc1cnc(-c2nn(Cc3c(Cl)cnn3C)c3ccccc23)nc1Nc1ccncc1` [Example 2-2-1, 2-{1-[(4-chloro-1-methyl-1H-pyrazol-5-yl)methyl]-1H-indazol-3-yl}-5-methoxy-N-(pyridin-4-yl)pyrimidin-4-amine], the IC50 in experiment [1] (setting [3]) is 8.9 nM; in experiment [2], greater than 10000 nM.
In the case of `COc1cnc(-c2nn(Cc3nn(C)cc3Cl)c3ccccc23)nc1Nc1ccncc1` [Example 2-2-2, 2-{1-[(4-chloro-1-methyl-1H-pyrazol-3-yl)methyl]-1H-indazol-3-yl}-5-methoxy-N-(pyridin-4-yl)pyrimidin-4-amine], the IC50 in experiment [1] (setting [3]) was found to be 46 nM; in experiment [2] it was 4400 nM.
For `COc1cnc(-c2nn(Cc3nsc(N)n3)c3ccccc23)nc1Nc1ccncc1` [Example 2-2-3, 2-{1-[(5-amino-1,2,4-thiadiazol-3-yl)methyl]-1H-indazol-3-yl}-5-methoxy-N-(pyridin-4-yl)pyrimidin-4-amine], in that order: 54 nM and greater than 10000 nM.
On the same counts, the results for `COCc1noc(Cn2nc(-c3ncc(OC)c(Nc4ccncc4)n3)c3ccccc32)n1` [Example 2-2-4, 5-methoxy-2-(1-{[3-(methoxymethyl)-1,2,4-oxadiazol-5-yl]methyl}-1H-indazol-3-yl)-N-(pyridin-4-yl)pyrimidin-4-amine] are 280 nM and greater than 10000 nM.
With `CNC(=O)c1nc(Cn2nc(-c3ncc(OC)c(Nc4ccncc4)n3)c3ccccc32)no1` [Example 2-2-5, 3-({3-[5-methoxy-4-(pyridin-4-ylamino)pyrimidin-2-yl]-1H-indazol-1-yl}methyl)-N-methyl-1,2,4-oxadiazole-5-carboxamide], the figures for the IC50 in experiment [1] (setting [3]) and in experiment [2] were 540 nM and greater than 10000 nM, respectively.
Take `COc1cnc(-c2nn(Cc3cn4cccnc4n3)c3ccccc23)nc1Nc1ccncc1` [Example 2-2-6, 2-[1-(imidazo[1,2-a]pyrimidin-2-ylmethyl)-1H-indazol-3-yl]-5-methoxy-N-(pyridin-4-yl)pyrimidin-4-amine]: the IC50 in experiment [1] (setting [3]) is 1600 nM.
As to `COc1cnc(-c2nn(Cc3cc(=O)[nH]c(=O)[nH]3)c3ccccc23)nc1Nc1ccncc1` [Example 2-2-7, 6-({3-[5-methoxy-4-(pyridin-4-ylamino)pyrimidin-2-yl]-1H-indazol-1-yl}methyl)pyrimidine-2,4(1H,3H)-dione], the IC50 in experiment [1] was 3100 nM; in experiment [2], greater than 10000 nM.
Take `CNC(=O)c1cnccc1Nc1nc(-c2nn(Cc3nc(COC)no3)c3ccccc23)ncc1OC` [Example 2-2-8, 4-{[5-methoxy-2-(1-{[3-(methoxymethyl)-1,2,4-oxadiazol-5-yl]methyl}-1H-indazol-3-yl)pyrimidin-4-yl]amino}-N-methylnicotinamide]: the IC50 was 17 nM in experiment [1] (setting [3]) and greater than 10000 nM in experiment [2].
Consider `COc1cnc(-c2nn(Cc3cc(C(C)C)no3)c3ccccc23)nc1Nc1ccncc1C(N)=O` [Example 2-2-9, 4-[(2-{1-[(3-isopropyl-1,2-oxazol-5-yl)methyl]-1H-indazol-3-yl}-5-methoxypyrimidin-4-yl)amino]nicotinamide], for which the results for the IC50 in experiment [1] and in experiment [2] were 6.9 nM and 3900 nM, respectively.
In the case of `COCc1noc(Cn2nc(-c3ncc(OC)c(Nc4ccncc4C(N)=O)n3)c3ccccc32)n1` [Example 2-2-10, 4-{[5-methoxy-2-(1-{[3-(methoxymethyl)-1,2,4-oxadiazol-5-yl]methyl}-1H-indazol-3-yl)pyrimidin-4-yl]amino}nicotinamide], the IC50 in experiment [1] was 4.8 nM; in experiment [2], greater than 10000 nM.
As for `COc1cnc(-c2nn(Cc3cscn3)c3ccccc23)nc1Nc1ccncc1C(N)=O` [Example 2-2-11, 4-({5-methoxy-2-[1-(1,3-thiazol-4-ylmethyl)-1H-indazol-3-yl]pyrimidin-4-yl}amino)nicotinamide], the IC50 in experiment [1] was 8 nM; in experiment [2], 8800 nM.
On to `CNC(=O)c1cnccc1Nc1nc(-c2nn(Cc3cc(C(C)C)no3)c3ccccc23)ncc1OC` [Example 2-2-12, 4-[(2-{1-[(3-isopropyl-1,2-oxazol-5-yl)methyl]-1H-indazol-3-yl}-5-methoxypyrimidin-4-yl)amino]-N-methylnicotinamide], for which the IC50 in experiment [1] is 5.7 nM; in experiment [2], greater than 10000 nM.
In the case of `COc1cnc(-c2nn(Cc3nnc(C)o3)c3ccccc23)nc1Nc1ccncc1C(N)=O` [Example 2-2-13, 4-[(5-methoxy-2-{1-[(5-methyl-1,3,4-oxadiazol-2-yl)methyl]-1H-indazol-3-yl}pyrimidin-4-yl)amino]nicotinamide], the IC50 in experiment [1] was 22 nM; in experiment [2] it was greater than 10000 nM.
In turn, `CNC(=O)c1cnccc1Nc1nc(-c2nn(Cc3nnc(C)o3)c3ccccc23)ncc1OC` [Example 2-2-15, 4-[(5-methoxy-2-{1-[(5-methyl-1,3,4-oxadiazol-2-yl)methyl]-1H-indazol-3-yl}pyrimidin-4-yl)amino]-N-methylnicotinamide] displayed an IC50 in experiment [1] of 99 nM.
Same read-out and setting: then `Cc1noc(C)c1Cn1nc(-c2nc(N)cc(Nc3ccncc3C(=O)NCCO)n2)c2ccccc21` [Example 2-4-1, 4-[(6-amino-2-{1-[(3,5-dimethyl-1,2-oxazol-4-yl)methyl]-1H-indazol-3-yl}pyrimidin-4-yl)amino]-N-(2-hydroxyethyl)nicotinamide], with 34 nM.
